Converted amounts (≈) assume the structure as drawn. Where a SMILES comes first, the peptide text is derived from it.
Compound: NP(N)(=O)c1ccccc1
- solubility (25 °C): 71.1 mM (≈ 11100 µg/mL)

Compound: O=C1CN(CO)C(=O)CN1CO
- solubility: 383 mM (≈ 66700 µg/mL)

Compound: COc1ccc2[nH]c(=O)cc(C(=O)O)c2c1
- solubility (21 °C): 0.776 mM (≈ 170 µg/mL)

Compound: COC(=O)c1ccc(O)c(Br)c1
- solubility (30 °C): 0.684 mM (≈ 158 µg/mL)

Compound: CCC(C)(C)NC(N)=O
- solubility (27 °C): 96.8 mM (≈ 12600 µg/mL)

Compound: CCC(CC)C(=O)N(CC)CC
- solubility: 81.7 mM (≈ 14000 µg/mL)

Compound: O=C(O)c1ccc2ccccc2n1
- solubility (25 °C): 81.1 mM (≈ 14000 µg/mL)

Compound: CCOC(=O)c1[nH]c(C)cc1C
- solubility (20 °C): 2.39 mM (≈ 400 µg/mL)

Compound: COCc1ccc(C=O)o1
- solubility (20 °C): 317 mM (≈ 44400 µg/mL)

Compound: CC(C)CCOCC(O)CO (centres undefined)
- solubility: 61.6 mM (≈ 10000 µg/mL)

Compound: CCCCOC(=O)CCO
- solubility: 51.3 mM (≈ 7500 µg/mL)

Compound: CC(=O)OOC(=O)c1ccccc1
- solubility (25 °C): 3.55 mM (≈ 639 µg/mL)

Compound: CC(C)CCOCC(O)COCCC(C)C
- solubility: 43 mM (≈ 10000 µg/mL)

Compound: O=C(Cc1ccccc1)N[C@@H](CSSC[C@H](NC(=O)Cc1ccccc1)C(=O)O)C(=O)O
- solubility: 14.7 mM (≈ 7000 µg/mL)

Compound: C=CCOC(=O)C(C)OC(=O)C(C)O (centres undefined)
- solubility (25 °C): 208 mM (≈ 42000 µg/mL)

Compound: CCCCOP(=O)(OCC)OCCCC
- solubility (25 °C): 14.3 mM (≈ 3400 µg/mL)

Compound: Cc1ccc(N)cc1C
- solubility (22 °C): 31.4 mM (≈ 3800 µg/mL)

Compound: O=Cc1cccc(C(=O)O)c1O
- solubility (24 °C): 3.61 mM (≈ 600 µg/mL)

Compound: CCOc1ccc(NC(C)=O)c2cccnc12
- solubility (20 °C): 30.4 mM (≈ 7000 µg/mL)

Compound: CC1(C)OC(=O)c2ccccc21
- solubility (25 °C): 13.5 mM (≈ 2200 µg/mL)

Compound: N[C@@H](Cc1cc([N+](=O)[O-])c(O)c([N+](=O)[O-])c1)C(=O)O
- solubility: 30.7 mM (≈ 8330 µg/mL)

Compound: CC1(O)CCC(C)(O)CC1 (centres undefined)
- solubility: 243 mM (≈ 35000 µg/mL)

Compound: CC(CCC(=O)O)NC(=O)c1ccccc1 (centres undefined)
- solubility (25 °C): 20.3 mM (≈ 4500 µg/mL)

Compound: CC(=O)Nc1ccc(S(=O)(=O)Nc2ccccn2)cc1
- solubility (20 °C): 0.192 mM (≈ 56 µg/mL)

Compound: O=C(O)CNC(=O)c1ccco1
- solubility (21 °C): 187 mM (≈ 31700 µg/mL)

Compound: C=CCOc1ccccc1C(N)=O
- solubility (20 °C): 5.93 mM (≈ 1050 µg/mL)

Compound: CC(S(C)(=O)=O)S(C)(=O)=O
- solubility: 38.1 mM (≈ 7100 µg/mL)

Compound: CN(C)c1ncnc2nccnc12
- solubility (20 °C): 95.1 mM (≈ 16700 µg/mL)

Compound: NC(=O)C=Cc1ccccc1[N+](=O)[O-]
- solubility: 52 mM (≈ 10000 µg/mL)

Compound: CC1(CCN2CCCCC2)NC(=O)NC1=O (centres undefined)
- solubility (20 °C): 151 mM (≈ 34000 µg/mL)

Compound: Cc1ccc(OCC(=O)O)cc1
- solubility (20 °C): 7.22 mM (≈ 1200 µg/mL)

Compound: c1ccc2c(c1)-c1cccc3cc4c(ccc5ccccc54)c-2c13
- solubility (27 °C): 3.31e-06 mM (≈ 0.001 µg/mL)

Compound: CC(=O)Nc1ccc(C)cc1
- solubility (25 °C): 8.04 mM (≈ 1200 µg/mL)

Compound: OCc1ccc(Cl)cc1Cl
- solubility (20 °C): 5.65 mM (≈ 1000 µg/mL)

Compound: CCCCCOP(=O)(OCC)OCC
- solubility (25 °C): 33.4 mM (≈ 7500 µg/mL)

Compound: O=COCc1ccco1
- solubility (25 °C): 104 mM (≈ 13100 µg/mL)

Compound: Cc1ccc(S(=O)(=O)Oc2ccccc2C)cc1
- solubility (25 °C): 0.114 mM (≈ 30 µg/mL)

Compound: Cn1c(=O)c2[nH]c(Cl)nc2n(C)c1=O
- solubility (25 °C): 31.1 mM (≈ 6670 µg/mL)

Compound: CNCCC(=O)O
- solubility: 882 mM (≈ 91000 µg/mL)

Compound: COC(=O)CCCCCCCCC(=O)OC
- solubility: 0.521 mM (≈ 120 µg/mL)

Compound: NS(=O)(=O)c1cccc(S(N)(=O)=O)c1
- solubility (25 °C): 6.77 mM (≈ 1600 µg/mL)

Compound: CC(C)c1nnc(NS(=O)(=O)c2ccc(N)cc2)s1
- solubility (20 °C): 0.385 mM (≈ 115 µg/mL)

Compound: CN1c2ccccc2C(O)(c2ccccc2)c2ccccc21
- solubility (25 °C): 0.125 mM (≈ 35.9 µg/mL)

Compound: CCCCOP(=O)(OC)OCCCC
- solubility (25 °C): 31.7 mM (≈ 7100 µg/mL)

Compound: O=CC(=O)Cc1ccccc1
- solubility (20 °C): 6.75 mM (≈ 1000 µg/mL)

Compound: CCNCNC(=O)c1ccccc1
- solubility (25 °C): 842 mM (≈ 150000 µg/mL)

Compound: CCC(CC)COC(=O)NS(N)(=O)=O
- solubility (25 °C): 17.8 mM (≈ 4000 µg/mL)

Compound: N=C(NO)C(=N)NO
- solubility (25 °C): 167 mM (≈ 19700 µg/mL)

Compound: Cn1cnc2nc(Cl)nc(NN)c21
- solubility: 72 mM (≈ 14300 µg/mL)

Compound: Oc1cnn(-c2ccccc2)c1
- solubility (25 °C): 10.9 mM (≈ 1750 µg/mL)

Compound: CCC(=O)OC(C)C(=O)OC (centres undefined)
- solubility (25 °C): 137 mM (≈ 22000 µg/mL)

Compound: CCCc1ncnc2c(O)cccc12
- solubility (20 °C): 1.2 mM (≈ 226 µg/mL)

Compound: CCCOc1ccc(NC(C)=O)cc1
- solubility (30 °C): 0.88 mM (≈ 170 µg/mL)

Compound: CSc1cc(O)cc(O)c1
- solubility (20 °C): 16 mM (≈ 2500 µg/mL)

Compound: O=C(O)CSSSSCC(=O)O
- solubility: 35.3 mM (≈ 8700 µg/mL)

Compound: CN(C)C(=O)c1ccccc1C(=O)N(C)C
- solubility (30 °C): 3220 mM (≈ 710000 µg/mL)

Compound: Nc1ccc(C#Cc2ccc(N)cc2)cc1
- solubility: 3.69 mM (≈ 769 µg/mL)

Compound: O=C1OCc2ccc(Cl)cc21
- solubility (25 °C): 3.3 mM (≈ 556 µg/mL)

Compound: COCC(=O)c1ccccc1
- solubility: 173 mM (≈ 26000 µg/mL)

Compound: Clc1cnc2ncncc2n1
- solubility (20 °C): 75 mM (≈ 12500 µg/mL)

Compound: C=CCC1(CC)C(=O)NC(=O)NC1=O
- solubility (20 °C): 20.5 mM (≈ 4020 µg/mL)

Compound: CCOC(=O)c1[nH]c(C=O)c(CC)c1C
- solubility (20 °C): 1.91 mM (≈ 400 µg/mL)

Compound: CCOC(CC(C)O)OCC (centres undefined)
- solubility: 1230 mM (≈ 200000 µg/mL)

Compound: O=S(=O)(CCCl)CCOCCS(=O)(=O)CCCl
- solubility: 11.5 mM (≈ 3750 µg/mL)

Compound: CC(=O)NC(NC(C)=O)c1ccccc1
- solubility (20 °C): 48.5 mM (≈ 10000 µg/mL)

Compound: NC(=O)NCCC(=O)O
- solubility (25 °C): 158 mM (≈ 20900 µg/mL)

Compound: O=C(O)C(Cl)(Cl)CCCl
- solubility: 261 mM (≈ 50000 µg/mL)

Compound: CN(C)c1cccc(S(=O)(=O)O)c1
- solubility (25 °C): 1990 mM (≈ 400000 µg/mL)

Compound: CCCn1c(=O)c2c(ncn2C)n(C)c1=O
- solubility (30 °C): 61.9 mM (≈ 13800 µg/mL)

Compound: C=CCOC(CO)CO
- solubility: 3030 mM (≈ 400000 µg/mL)

Compound: N#CNC(N)=S
- solubility (25 °C): 989 mM (≈ 100000 µg/mL)

Compound: CCN(C(N)=O)c1ccccc1C
- solubility (25 °C): 617 mM (≈ 110000 µg/mL)

Compound: CC(=O)OCCS
- solubility (22 °C): 31.6 mM (≈ 3800 µg/mL)

Compound: CC(=O)OC[C@@H](O)[C@@H](OC(C)=O)[C@H](OC(C)=O)[C@H](C=O)OC(C)=O
- solubility (25 °C): 44.2 mM (≈ 15400 µg/mL)

Compound: N#Cc1ccc(C(=O)O)cc1
- solubility (20 °C): 8.16 mM (≈ 1200 µg/mL)

Compound: C1COC2(C1)CCCO2
- solubility: 780 mM (≈ 100000 µg/mL)

Compound: CCN1CC(=O)N=C1N
- solubility (25 °C): 684 mM (≈ 87000 µg/mL)

Compound: CC(C)C[C@H](N)C(=O)N[C@@H](CCC(=O)O)C(=O)O (H-Leu-Glu-OH)
- solubility (25 °C): 127 mM (≈ 33000 µg/mL)

Compound: CCCC[C@H](NC(C)=O)C(=O)O (racemic)
- solubility (25 °C): 307 mM (≈ 53100 µg/mL)

Compound: CC(C)C1OCCO1
- solubility: 861 mM (≈ 100000 µg/mL)

Compound: Oc1cc2ccccc2cc1C1=NCCN1
- solubility (20 °C): 0.499 mM (≈ 106 µg/mL)

Compound: O=S(=O)(O)c1cc(O)c2cc(Nc3ccccc3)ccc2c1
- solubility: 10.6 mM (≈ 3330 µg/mL)

Compound: O=C(O)C1(O)CCCCC1
- solubility: 465 mM (≈ 67000 µg/mL)

Compound: N#CI
- solubility (25 °C): 233 mM (≈ 35600 µg/mL)
